Measured values: ChEMBL document CHEMBL4417636, “Small molecule inhibitors of pendrin ion exchange and pharmaceutical compositions” (2017)
The source made the active and inactive calls. The rule behind the calls is not given here.

Experiments:
[1] = test system: Mus musculus; test: Effect on renal function in CD1 mouse assessed as effect on urinary salt excretion at 50 mg/kg, ip measured at 3 hrs; type: ADME, organism-based; settings: in vivo
[2] = test system: Mus musculus; test: Effect on renal function in CD1 mouse assessed as effect on urine pH at 50 mg/kg, ip; type: ADME, organism-based; settings: in vivo
[3] = biological target: T1, Chloride anion exchanger (Mus musculus) (UniProt Q9WVC8); test: Inhibition of myc-tagged mouse Slc26a3 expressed in COS7 co-expressing EYFP-HIF assessed as effect on SCN(-) gradient at 25 uM by YFP-based fluorescence quenching assay
T1 sequence (whole entry): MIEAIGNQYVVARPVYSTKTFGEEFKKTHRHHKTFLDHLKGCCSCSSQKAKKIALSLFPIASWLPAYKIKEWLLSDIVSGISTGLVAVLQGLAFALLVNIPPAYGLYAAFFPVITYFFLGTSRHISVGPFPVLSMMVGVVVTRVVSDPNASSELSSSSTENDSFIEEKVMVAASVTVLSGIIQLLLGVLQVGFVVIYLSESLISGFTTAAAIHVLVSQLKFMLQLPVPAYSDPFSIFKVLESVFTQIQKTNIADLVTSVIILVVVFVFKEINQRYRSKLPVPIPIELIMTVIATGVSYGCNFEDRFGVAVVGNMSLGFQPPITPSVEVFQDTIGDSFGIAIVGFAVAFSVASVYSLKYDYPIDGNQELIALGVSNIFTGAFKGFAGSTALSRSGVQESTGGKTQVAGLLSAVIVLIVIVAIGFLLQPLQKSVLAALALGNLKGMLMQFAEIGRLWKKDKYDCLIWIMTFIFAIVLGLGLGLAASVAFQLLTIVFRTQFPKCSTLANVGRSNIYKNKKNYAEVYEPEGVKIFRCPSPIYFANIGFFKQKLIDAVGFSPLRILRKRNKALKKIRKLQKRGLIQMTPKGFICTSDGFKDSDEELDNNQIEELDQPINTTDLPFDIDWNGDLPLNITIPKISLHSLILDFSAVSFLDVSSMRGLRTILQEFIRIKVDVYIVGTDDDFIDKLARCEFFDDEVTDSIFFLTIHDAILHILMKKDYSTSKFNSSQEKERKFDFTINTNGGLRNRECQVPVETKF

[4] = test system: Mus musculus; test: Potentiation of 20 mg/kg, ip furosemide-induced acute diuretic action in CD1 mouse assessed as effect on urine pH at 10 mg/kg, ip relative to control; type: functional, organism-based
[5] = biological target: T2, Pendrin (Homo sapiens) (UniProt O43511); test: Inhibition of human pendrin expressed in FRT cells co-expressing EYFP-HIF assessed as reduction in pendrin-mediated C17F exchange incubated for 10 mins by pH-sensitive fluorescent probe BCECF-AM based fluorescence assay relative to control; type: cell-based
T2 sequence (whole entry): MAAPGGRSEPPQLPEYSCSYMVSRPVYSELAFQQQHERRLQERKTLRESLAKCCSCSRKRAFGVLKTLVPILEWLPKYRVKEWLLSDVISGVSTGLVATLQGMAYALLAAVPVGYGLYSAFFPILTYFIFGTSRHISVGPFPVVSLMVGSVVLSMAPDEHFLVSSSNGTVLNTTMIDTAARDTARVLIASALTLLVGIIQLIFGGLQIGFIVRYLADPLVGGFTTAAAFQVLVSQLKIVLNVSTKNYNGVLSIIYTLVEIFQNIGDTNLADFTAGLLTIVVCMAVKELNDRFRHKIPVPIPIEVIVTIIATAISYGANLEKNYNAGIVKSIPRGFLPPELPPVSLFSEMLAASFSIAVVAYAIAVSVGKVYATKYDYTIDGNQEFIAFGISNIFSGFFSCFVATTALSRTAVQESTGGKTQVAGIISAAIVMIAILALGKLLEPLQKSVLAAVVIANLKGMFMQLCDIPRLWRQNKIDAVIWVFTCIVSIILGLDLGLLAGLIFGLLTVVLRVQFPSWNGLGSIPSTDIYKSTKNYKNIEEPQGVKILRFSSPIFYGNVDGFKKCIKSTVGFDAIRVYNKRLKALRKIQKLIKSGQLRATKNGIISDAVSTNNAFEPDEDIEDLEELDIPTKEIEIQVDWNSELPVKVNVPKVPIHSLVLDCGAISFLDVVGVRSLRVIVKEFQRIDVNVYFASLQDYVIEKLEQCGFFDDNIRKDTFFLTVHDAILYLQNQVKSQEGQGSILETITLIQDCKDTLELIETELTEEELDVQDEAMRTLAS

[6] = test system: Mus musculus; test: Potentiation of 20 mg/kg, ip bid for 8 days furosemide-induced chronic diuretic action in CD1 mouse assessed as effect on urine osmolarity at 10 mg/kg, ip measured at 3 hrs relative to control; type: functional, organism-based
[7] = biological target: T2, Pendrin (Homo sapiens); test: Inhibition of human pendrin expressed in FRT cells co-expressing EYFP-HIF assessed as reduction in pendrin-mediated C17SCN(-) exchange incubated for 10 mins by pH-sensitive fluorescent probe BCECF-AM based fluorescence assay relative to control; type: cell-based
[8] = biological target: T2, Pendrin (Homo sapiens); test: Time dependent inhibition of human pendrin expressed in FRT cells co-expressing EYFP-HIF assessed as reduction in pendrin-mediated C17SCN(-) exchange by pH-sensitive fluorescent probe BCECF-AM based fluorescence assay relative to control; type: cell-based; settings: TDE = time-dependent effect
[9] = test system: Mus musculus; test: Effect on renal function in C57B/6 mouse assessed as effect on blood gas values at 50 mg/kg, ip; type: ADME, organism-based; settings: in vivo
[10] = biological target: T2, Pendrin (Homo sapiens); test: Reversible inhibition of human pendrin expressed in FRT cells co-expressing EYFP-HIF assessed as reduction in pendrin-mediated C17SCN(-) exchange incubated for 10 mins measured after wash out by pH-sensitive fluorescent probe BCECF-AM based fluorescence assay relative to control; type: cell-based
[11] = test system: Mus musculus; test: Potentiation of 20 mg/kg, ip bid for 8 days furosemide-induced chronic diuretic action in CD1 mouse assessed as increase in urinary Na+ excretion at 10 mg/kg, ip measured at 3 hrs relative to control; type: functional, organism-based
[12] = biological target: T2, Pendrin (Homo sapiens); test: Inhibition of human pendrin expressed in FRT cells co-expressing EYFP-HIF assessed as reduction in pendrin-mediated C17HCO3(-) exchange by measuring reduction in cytoplasmic alkalinization exchange at 25 uM by pH-sensitive fluorescent probe BCECF-AM based fluorescence assay relative to control; type: cell-based
[13] = test system: Mus musculus; test: Potentiation of 20 mg/kg, ip bid for 8 days furosemide-induced chronic diuretic action in CD1 mouse assessed as increase in urinary K+ excretion at 10 mg/kg, ip measured at 3 hrs relative to control; type: functional, organism-based
[14] = test system: Mus musculus; test: Effect on renal function in C57B/6 mouse assessed as effect on urinary salt excretion at 50 mg/kg, ip measured at 3 hrs; type: ADME, organism-based; settings: in vivo
[15] = test system: Mus musculus; test: Effect on renal function in CD1 mouse assessed as effect on blood gas values at 50 mg/kg, ip; type: ADME, organism-based; settings: in vivo
[16] = test system: Mus musculus; test: Effect on renal function in C57B/6 mouse assessed as effect on urine pH at 50 mg/kg, ip; type: ADME, organism-based; settings: in vivo
[17] = biological target: Cystic fibrosis transmembrane conductance regulator (Homo sapiens) (UniProt P13569); test: Inhibition of CFTR in human bronchial epithelial cells assessed as effect on short-circuit current at 25 uM pre-incubated for 30 mins
Sequence of Cystic fibrosis transmembrane conductance regulator (Homo sapiens) (P13569 whole entry, looked up): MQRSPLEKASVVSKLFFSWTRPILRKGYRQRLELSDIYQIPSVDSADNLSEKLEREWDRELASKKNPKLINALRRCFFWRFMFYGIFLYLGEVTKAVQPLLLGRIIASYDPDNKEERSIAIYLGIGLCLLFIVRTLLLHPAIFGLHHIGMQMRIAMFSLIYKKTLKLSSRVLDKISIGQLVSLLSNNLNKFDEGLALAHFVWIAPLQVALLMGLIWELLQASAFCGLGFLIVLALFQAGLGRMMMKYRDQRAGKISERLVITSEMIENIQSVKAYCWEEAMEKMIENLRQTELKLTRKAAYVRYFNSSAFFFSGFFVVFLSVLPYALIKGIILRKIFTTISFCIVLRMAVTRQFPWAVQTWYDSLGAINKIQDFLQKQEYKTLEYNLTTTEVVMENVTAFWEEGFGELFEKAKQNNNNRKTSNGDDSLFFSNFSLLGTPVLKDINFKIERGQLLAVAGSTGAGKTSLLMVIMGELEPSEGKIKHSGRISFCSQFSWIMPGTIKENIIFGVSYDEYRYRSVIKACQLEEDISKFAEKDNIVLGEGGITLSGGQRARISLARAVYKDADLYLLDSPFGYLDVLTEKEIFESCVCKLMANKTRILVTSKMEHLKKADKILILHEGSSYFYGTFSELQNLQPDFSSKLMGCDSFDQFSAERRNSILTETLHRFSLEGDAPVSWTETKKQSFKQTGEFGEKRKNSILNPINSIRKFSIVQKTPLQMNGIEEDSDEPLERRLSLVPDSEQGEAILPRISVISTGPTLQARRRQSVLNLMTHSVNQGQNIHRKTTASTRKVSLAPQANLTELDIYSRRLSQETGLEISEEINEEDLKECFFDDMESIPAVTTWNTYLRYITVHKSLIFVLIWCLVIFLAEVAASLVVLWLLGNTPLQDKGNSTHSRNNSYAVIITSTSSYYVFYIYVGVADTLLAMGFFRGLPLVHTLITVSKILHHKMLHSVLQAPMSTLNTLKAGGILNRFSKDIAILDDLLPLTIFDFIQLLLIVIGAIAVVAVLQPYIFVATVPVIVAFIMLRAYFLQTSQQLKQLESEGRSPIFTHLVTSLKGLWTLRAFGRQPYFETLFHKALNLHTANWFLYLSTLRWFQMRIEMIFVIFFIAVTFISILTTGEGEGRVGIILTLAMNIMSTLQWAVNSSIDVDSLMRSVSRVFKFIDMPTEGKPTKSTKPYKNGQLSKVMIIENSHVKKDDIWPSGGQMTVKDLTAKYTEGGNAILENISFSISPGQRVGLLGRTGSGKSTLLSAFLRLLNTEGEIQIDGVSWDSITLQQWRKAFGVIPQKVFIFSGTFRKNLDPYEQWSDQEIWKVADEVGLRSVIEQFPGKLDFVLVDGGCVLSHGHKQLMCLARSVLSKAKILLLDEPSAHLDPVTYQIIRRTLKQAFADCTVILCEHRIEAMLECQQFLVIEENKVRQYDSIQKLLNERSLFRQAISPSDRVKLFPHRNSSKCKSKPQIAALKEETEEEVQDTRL

Row | Structure (SMILES) | Activity [1] | Activity [2] | inhibition [3] | Activity [4] | inhibition [5] | Activity [6] | inhibition [7] | inhibition [8] | Activity [9] | inhibition [10] | Activity [11] | inhibition [12] | Activity [13] | Activity [14] | Activity [15] | Activity [16] | inhibition [17]
1 | Cc1n[nH]c(-c2cc(S(=O)(=O)NC3CCCc4ccccc43)c(C)s2)c1C (stereo unspecified) | Non-Toxic | Non-Toxic | inactive | inactive | Dose-dependent effect | inactive | Dose-dependent effect | Tde | Non-Toxic | Active | Active | Active | Active | Non-Toxic | Non-Toxic | Non-Toxic | –
2 | Cn1nc(COc2cccc(F)c2)c2c1CCN(C(=O)Nc1ccc(Cl)cc1)C2 | Non-Toxic | Non-Toxic | – | – | Dose-dependent effect | inactive | Dose-dependent effect | Tde | Non-Toxic | Active | Active | Active | Active | Non-Toxic | Non-Toxic | Non-Toxic | inactive
